Source: PubChem BioAssay (NCI)
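Following 48 hours of exposure in 96-well plates, responses at five concentrations were used to interpolate endpoints linearly. TGI denotes the concentration required for complete inhibition of growth.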

Experiments:
Assay in all cases: NCI tumour cell line growth inhibition, 48 h
[1] = tested on: SK-MEL-28 melanoma
[2] = tested on: LOX IMVI melanoma
[3] = tested on: CAKI-1 renal
[4] = tested on: SNB-75 CNS
[5] = tested on: K-562 leukemia
[6] = tested on: EKVX NSCLC
[7] = tested on: OVCAR-3 ovarian
[8] = tested on: COLO 205 colon
[9] = tested on: HT29 colon
[10] = tested on: NCI-H23 lung
[11] = tested on: NCI-H522 lung
[12] = tested on: A549 NSCLC
[13] = tested on: NCI/ADR-RES ovarian
[14] = tested on: DMS 273 small cell lung
[15] = tested on: UACC-257 melanoma
[16] = tested on: UO-31 renal
[17] = tested on: CCRF-CEM leukemia
[18] = tested on: HOP-18 NSCLC
[19] = tested on: UACC-62 melanoma
[20] = tested on: P388 leukemia
[21] = tested on: SF-539 CNS
[22] = tested on: HCT-15 colon
[23] = tested on: HL-60(TB) leukemia
[24] = tested on: OVCAR-5 ovarian
[25] = tested on: OVCAR-8 ovarian
[26] = tested on: P388/ADR leukemia
[27] = tested on: NCI-H226 lung
[28] = tested on: SF-268 CNS
[29] = tested on: SNB-78 CNS
[30] = tested on: U251 CNS
[31] = tested on: SN12K1 renal
[32] = tested on: HCT-116 colon
[33] = tested on: MOLT-4 leukemia
[34] = tested on: RXF 393 renal
[35] = tested on: OVCAR-4 ovarian
[36] = tested on: SK-MEL-5 melanoma
[37] = tested on: HCC-2998 colon
[38] = tested on: MCF7 breast
[39] = tested on: IGROV1 ovarian
[40] = tested on: SF-295 CNS
[41] = tested on: DMS 114 small cell lung
[42] = tested on: RPMI-8226 leukemia
[43] = tested on: XF 498 CNS
[44] = tested on: DLD-1 colon
[45] = tested on: HOP-62 NSCLC
[46] = tested on: A498 renal
[47] = tested on: NCI-H460 lung
[48] = tested on: SW-620 colon
[49] = tested on: SN12C renal
[50] = tested on: KM20L2 colon
[51] = tested on: SNB-19 CNS
[52] = tested on: KM12 colon

## C=C1CC(OC)(C(OC)C(=O)N(C)[C@H]2OCO[C@H]3C2O[C@H](C[C@@H](COC)OC)C(C)(C)C3OC)O[C@H](C)[C@@H]1C (some centres not stated)
[1]
  TGI: 40.6 µM
[2]
  TGI: 26.5 µM
[3]
  TGI: 28.5 µM
[4]
  TGI: 24.7 µM
[5]
  TGI: 40.9 µM
[6]
  TGI: 60.7 µM
[7]
  TGI: 37.8 µM
[8]
  TGI: 20.9 µM
[9]
  TGI: 29 µM
[10]
  TGI: 34.7 µM
[11]
  TGI: 29.9 µM
[12]
  TGI: > 91.7 µM
[13]
  TGI: 41.2 µM
[14]
  TGI: 29 µM
[15]
  TGI: 30.3 µM
[16]
  TGI: 49.1 µM
[17]
  TGI: 37.7 µM
[18]
  TGI: 71.2 µM
[19]
  TGI: 33.1 µM
[20]
  TGI: 18.2 µM
[21]
  TGI: 42.8 µM
[22]
  TGI: 87.3 µM
[23]
  TGI: 39.6 µM
[24]
  TGI: 69.2 µM
[25]
  TGI: > 91.7 µM
[26]
  TGI: 38.8 µM
[27]
  TGI: 23.9 µM
[28]
  TGI: 30.2 µM
[29]
  TGI: 43.5 µM
[30]
  TGI: 54.4 µM
[31]
  TGI: 38.6 µM
[32]
  TGI: 30.6 µM
[33]
  TGI: 36 µM
[34]
  TGI: 24.8 µM
[35]
  TGI: 22.2 µM
[36]
  TGI: > 9.17 µM
[37]
  TGI: 31.6 µM
[38]
  TGI: 28.8 µM
[39]
  TGI: 32.5 µM
[40]
  TGI: 30 µM
[41]
  TGI: 34.9 µM
[42]
  TGI: 53.2 µM
[43]
  TGI: 40.1 µM
[44]
  TGI: 70.4 µM
[45]
  TGI: > 91.7 µM
[46]
  TGI: 28.8 µM
[47]
  TGI: 64.5 µM
[48]
  TGI: > 91.7 µM
[49]
  TGI: 86.6 µM
[50]
  TGI: 36.8 µM
[51]
  TGI: 46.8 µM
[52]
  TGI: 25.9 µM
